Assay results taken from patent US5461045A, “Fused benzeneoxyacetic acid derivatives” (Ono Pharmaceutical Co., Ltd., priority 1992, dated 1995).

Experiments:
PGI2 receptor = biological target: T1, PGI2 receptor (Homo sapiens, UniProt P43119); assay: Inhibitory activity against 3H-iloprost binding onto PGI2 receptor in human platelet membrane fraction; conditions: inhibition of 10 nM [3H]-iloprost specific binding; human platelet membranes 300 μg; 24° C., 30 min; pH 7.4
T1 construct: 300 μg of platelet plasma membranes; from tissue; host or cells: human platelets (plasma membranes)
Description: i) Inhibitory activity against ^3 H-iloprost onto PGI2 receptor in human platelet membrane fraction The binding assay was performed in 200 μl volumes containing 300 μg of platelet plasma membranes. The membranes were added to a buffer composed of 50 mM Tris-HCl (pH 7.4), 15 mM MgCl2, 5 mM EDTA with test compound and 10 nM [^3 H]-iloprost. The membranes were incubated at 24° C. for 30 min. After incubation, 4ml of ice-cold 10 mM Tris-HCl buffer (pH 7.4) was added to the reaction mixture, and filtered through Whatman GF/B glass fiber filter, and washed 4 times with 4 ml of ice-cold 10 mM Tris-HCl buffer (pH 7.4) to separate bound and free [^3 H]-iloprost. After washing, the filter was dried and radioactivity was counted. Non-specific binding was obtained by performing parallel binding experiments in the presence of 10 μM non-labelled iloprost. Specific binding was calculated by subtracting the non-specific binding from the total binding. The inhibitory effect of test compound was calculated from the following equation. The percentage of inhibition (%)=100-(B1 /B0 ×100) B1 : specific [^3 H]-iloprost binding in presence of test compound B0 : specific [^3 H]-iloprost binding in absence of test compound

[1] = test system: Human platelet aggregation; assay: Inhibitory effect on human platelet aggregation (ADP-induced, platelet-rich plasma); assay type: cell-based; conditions: compound added 1 min prior to ADP (4 μM)
Description: | ii) Inhibitory effect on Human platelet aggregation Method of | experiment Platelet-rich plasma was prepared from human blood (5×10^5 platelets/mm^3), and the test compound was added to PRP 1 min prior to the addition of ADP (4 μM). The aggregation was monitored using a platelet aggregometer (NBS HEMA TRACER 601, Niko Bioscience, Japan).

T1 sequence (P43119 whole entry): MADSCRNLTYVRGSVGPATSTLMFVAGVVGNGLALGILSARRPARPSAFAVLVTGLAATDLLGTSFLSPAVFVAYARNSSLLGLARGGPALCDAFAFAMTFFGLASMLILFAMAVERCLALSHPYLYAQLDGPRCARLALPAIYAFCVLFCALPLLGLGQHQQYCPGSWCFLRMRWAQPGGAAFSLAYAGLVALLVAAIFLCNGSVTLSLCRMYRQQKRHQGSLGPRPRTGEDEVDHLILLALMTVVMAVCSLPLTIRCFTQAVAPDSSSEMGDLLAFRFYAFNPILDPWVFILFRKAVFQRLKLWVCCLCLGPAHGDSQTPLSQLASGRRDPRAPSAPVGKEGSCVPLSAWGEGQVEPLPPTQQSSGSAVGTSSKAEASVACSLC

Compound	IC50 (PGI2 receptor)	IC50 [1]
CC(CC1CCc2c(cccc2OCC(=O)O)C1)=NOCc1ccccc1 (stereo not drawn) [6(l)]	1400 nM	–
CC(CC1CCc2c(cccc2OCC(=O)O)C1)=NOC(c1ccccc1)c1ccc([N+](=O)[O-])cc1 (stereo not drawn) [6(f)]	1000 nM	–
CC(CC1CCc2c(cccc2OCC(=O)O)C1)=NOC(c1ccccc1)c1ccncc1 (stereo not drawn) [6(g)]	700 nM	–
CC(CC1CCc2c(cccc2OCC(=O)O)C1)=NOC(c1ccc(F)cc1)c1ccc(F)cc1 (stereo not drawn) [6(e)]	480 nM	–
CCCC(CC1CCc2c(cccc2OCC(=O)O)C1)=NOC(c1ccccc1)c1ccccc1 (stereo not drawn) [6(n)]	270 nM	120 nM
O=C(O)COc1cccc2c1CCC(CC=NOC(c1ccccc1)c1ccccc1)C2 (stereo not drawn) [Example 3, [2-(2-Diphenylmethyloxyiminoethyl)-1,2,3,4-tetrahydro-naphthalen-5-yloxy]acetic acid]	890 nM	500 nM
CCCCCC(ON=C(C)CC1CCc2c(cccc2OCC(=O)O)C1)c1ccccc1 (stereo not drawn) [6(r)]	2700 nM	–
CC(CC1CCc2c(cccc2OCC(=O)O)C1)=NOC(c1ccccc1)c1ccccc1 (stereo not drawn) [Example 6, [2-(2-Diphenylmethyloxyiminopropyl)-1,2,3,4-tetrahydro-naphthalen-5-yloxy]acetic acid]	280 nM	240 nM
CCOC(=O)COc1cccc2c1CCC(CC(C)=NOC(c1ccccc1)c1ccccc1)C2 (stereo not drawn) [Example 5, [2-(2-Diphenylmethyloxyiminopropyl)-1,2,3,4-tetrahydro-naphthalen-5-yloxy]acetic acid ethyl ester]	7000 nM	–
O=C(O)COc1cccc2c1CCC(CCNOC(c1ccccc1)c1ccccc1)C2 (stereo not drawn) [Example 8, [2-(2-Diphenylmethyloxyaminoethyl)-1,2,3,4-tetrahydro-naphthalen-5-yloxy]acetic acid]	4000 nM	–
O=C(O)COc1cccc2c1CCCC(C=NOC(c1ccccc1)c1ccccc1)C2 (stereo not drawn) [Example 9]	1900 nM	–
CC(CC1CCc2c(cccc2OCC(=O)O)C1)=NOC(c1ccccc1)c1ccc(Cl)cc1 (stereo not drawn) [6(k)]	300 nM	–
CC(CC1CCc2c(cccc2OCC(=O)O)C1)=NOC(c1ccccc1)c1ccccn1 (stereo not drawn) [6(i)]	1800 nM	–
CCC(CC1CCc2c(cccc2OCC(=O)O)C1)=NOC(c1ccccc1)c1ccccc1 (stereo not drawn) [6(m)]	270 nM	71 nM
COc1ccc(C(ON=C(C)CC2CCc3c(cccc3OCC(=O)O)C2)c2ccc(OC)cc2)cc1 (stereo not drawn) [6(j)]	1800 nM	–
O=C(O)COc1cccc2c1CCC(CCC=NOC(c1ccccc1)c1ccccc1)C2 (stereo not drawn) [Example 4, [2-(3-Diphenylmethyloxyiminopropyl)-1,2,3,4-tetrahydro-naphthalen-5-yloxy]acetic acid]	2500 nM	–
O=C(O)COc1cccc2c1CCC(CC(=NOC(c1ccccc1)c1ccccc1)c1ccccc1)C2 (stereo not drawn) [6(p)]	2800 nM	–
CC(C)C(CC1CCc2c(cccc2OCC(=O)O)C1)=NOC(c1ccccc1)c1ccccc1 (stereo not drawn) [6(o)]	2300 nM	–
O=C(O)COc1cccc2c1CCC2CC=NOC(c1ccccc1)c1ccccc1 (stereo not drawn) [3(e)]	3600 nM	–
CC(CC1CCc2c(cccc2OCC(=O)O)C1)=NOC(c1ccccc1)c1cccnc1 (stereo not drawn) [6(h)]	1300 nM	1100 nM
O=C(O)COc1cccc2c1CCCC2CC=NOC(c1ccccc1)c1ccccc1 (stereo not drawn) [3(a)]	5400 nM	–
CC(CC1CCc2c(cccc2OCC(=O)O)C1)=NOC(c1ccccc1)C1CCCCC1 (stereo not drawn) [6(s)]	9600 nM	–
